Assay results published in the supplement of paper PMC10307832.

Experiments:
Test in all cases: relative viability (nuclei count vs DMSO), 5 days (fraction); higher = more cells survive
[1] = compound: Nc1ncn([C@H]2C[C@H](O)[C@@H](CO)O2)c(=O)n1 [Decitabine] + COc1cccc2cc(-c3nc([C@H]4CC[C@H](C(=O)O)CC4)n4ncnc(N)c34)[nH]c12 [OSI-027] (partner 0.5 µM)
Summary of the method: (§1)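 Nuclei were stained with Hoechst during a one-step fixation (final 0.05% Triton X-100, 1% formaldehyde, 1 ug/ml Hoechst) carried out 5 days after dosing, then counted on 4× images. The cells, lung cancer lines in 1536-well plates, had been dosed by pin tool the day after seeding with one drug alone or a fixed anchor-drug dose plus five library-drug doses (not always all listed) in √10 steps. Relative viability is the nuclei count in treated wells divided by that in vehicle wells, and each value is the median of duplicate plates.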

[2] = compound: Nc1ncn([C@H]2C[C@H](O)[C@@H](CO)O2)c(=O)n1 [Decitabine] + O=C(CCCCCCC(=O)Nc1ccccc1)NO [Vorinostat] (partner 1 µM)
Summary of the method: as §1

[3] = compound: O=C(C[C@H]1NCCC[C@@H]1O)Cn1cnc2cc(Br)c(Cl)cc2c1=O (racemic) [Halofuginone] + O=C(CCCCCCC(=O)Nc1ccccc1)NO [Vorinostat] (partner 1 µM)
Summary of the method: as §1

[4] = compound: O=C(C[C@H]1NCCC[C@@H]1O)Cn1cnc2cc(Br)c(Cl)cc2c1=O (racemic) [Halofuginone] + NC(=O)Nc1cc(-c2cccc(F)c2)sc1C(=O)N[C@H]1CCCNC1 [AZD7762] (partner 0.2 µM)
Summary of the method: as §1

Cell Line	relative viability ([1]; first compound 0.04 µM)	relative viability ([1]; first compound 0.1265 µM)	relative viability ([1]; first compound 0.4 µM)	relative viability ([1]; first compound 1.265 µM)	relative viability ([1]; first compound 4 µM)	relative viability ([2]; first compound 0.04 µM)	relative viability ([2]; first compound 0.1265 µM)	relative viability ([2]; first compound 0.4 µM)	relative viability ([2]; first compound 1.265 µM)	relative viability ([2]; first compound 4 µM)	relative viability ([3]; first compound 0.001 µM)	relative viability ([3]; first compound 0.003162 µM)	relative viability ([3]; first compound 0.01 µM)	relative viability ([3]; first compound 0.03162 µM)	relative viability ([3]; first compound 0.1 µM)	relative viability ([4]; first compound 0.001 µM)	relative viability ([4]; first compound 0.003162 µM)	relative viability ([4]; first compound 0.01 µM)	relative viability ([4]; first compound 0.03162 µM)	relative viability ([4]; first compound 0.1 µM)
NCI-H522	0.695	0.827	0.561	0.609	0.582	0.898	0.684	0.562	0.505	0.54	0.833	0.829	0.926	0.951	0.976	0.969	0.948	0.974	0.852	0.813
NCI-H460	0.603	0.848	0.598	0.308	0.215	0.669	0.64	0.293	0.214	0.0759	0.675	0.756	0.744	0.495	0.176	0.725	0.601	0.673	0.605	0.305
EMC-BAC-2	0.39	0.4	0.286	0.344	0.363		0.456	0.538	0.414	0.43	0.592	0.491	0.447	0.334	0.14	1.17	1.2	1.06	1.12	0.842
NCI-H23	0.48	0.498	0.255	0.231	0.245	0.281	0.301	0.256	0.176	0.179	0.664	0.521	0.559	0.553	0.534	0.32	0.184	0.223	0.233	0.246
NCI-H1793	0.204	0.277	0.289	0.277	0.233	0.462	0.631	0.552	0.382	0.325	0.898	0.672	0.664	0.846	0.497	0.461	0.593	0.508	0.394	0.549
A-427	0.266	0.324	0.26	0.213	0.246	0.789	0.732	0.526	0.411	0.396	0.89	0.891	0.828	0.827	0.807	0.729	0.806	0.805	0.77	0.497
ABC-1	0.554	0.387	0.492	0.424	0.37		0.842	0.964	0.888	0.795	1.11	1.08	1.04	1.24	1.04		0.728	0.689	0.832	0.775
NCI-H322M	0.507	0.496	0.432	0.473	0.441	0.715	0.792	0.816	0.61	0.664	0.935	0.967	0.811	0.865	0.561	0.517	0.708	0.526	0.614	0.426
SW 900	0.321	0.349	0.191	0.183	0.175	0.333	0.42	0.33	0.193	0.286	0.729	0.379		0.535	0.317	0.677	0.564		0.621	0.46
